Source: publication PMC9775191, “A Subset Screen of the Compounds Australia Scaffold Library Identifies 7-Acylaminodibenzoxazepinones as Potent and Selective Hits for Anti-Giardia Drug Discovery” (Biomedicines, 2022)
Like-named read-outs stand apart in the source and are kept apart here. Blank lines part the entries; values can stand above or below the molecule they belong to.

Columns and labels:
[1] = tested on: G. duodenalis BRIS/91/HEPU/1279; experiment: Primary Giardia screen at 10 µM (live-cell imaging, automated counting); type: cell-based, Giardia duodenalis; conditions: for inhibition at 10 µM: Giardia duodenalis
In short: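 Compound added to 10 μM final in medium with 0.2% DMSO, one well each; plates then held in sealed chambers at 3% O2, 5% CO2 in N2; growth imaged and counted automatically at 24 and 48 h; values normalised to vehicle wells minus media blank.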

[2] = tested on: G. duodenalis BRIS/91/HEPU/1279; experiment: Giardia dose response assay, assemblage B; type: cell-based, Giardia duodenalis
Protocol: In these assays, compounds were serially diluted (8–12-point doubling dilutions in technical duplicate) in DMSO control media, with all test wells inoculated with parasites (1.5 × 10^4 parasites for BRIS/91/HEPU/1279 and BRIS/91/HEPU/1279m1, or 3 × 10^3 parasites for BRIS/87/HEPU/713). […] All plates were sealed in culture chambers and gassed with 3% O2, 5% CO2 in N2 and incubated at 37 °C for 48 h, with parasites imaged and enumerated at 24 and 48 h. Growth inhibition was calculated as a percentage relative to vehicle controls minus any background as described above and IC50 values were determined using log-linear interpolation as previously described. […] Statistical comparison of IC50 values when required were performed using Student’s t-test.

[3] = tested on: Neonatal foreskin fibroblast (NFF) cells; experiment: Mammalian cell cytotoxicity assay (sulforhodamine B); type: cell-based, human; conditions: for inhibition at 20 µM / IC50: Homo sapiens, NFF; for inhibition at 20 µM: ±SD; for SI (48h Gd): Table S2, NFF vs 48 h Giardia IC50; for IC50: mean ± SD, read-out: IC50 NFF; for Selectivity: NFF IC50 divided by G. duodenalis BRIS/91/HEPU/1279 IC50
Protocol: The selectivity of compounds of interest was assessed against NFF cells. Assays were performed using sulforhodamine B and included media only, negative (no compound, no DMSO), and vehicle (DMSO) controls as previously described. A chloroquine control plate was included in each assay. […] Repurchased SN00797640 was tested in dose–response from 100 µM against NFF. Selectivity indices (SI) were calculated by dividing mammalian cell IC50 values by G. duodenalis BRIS/91/HEPU/1279 IC50 values.

[4] = tested on: Acinetobacter baumannii (ATCC 19606); experiment: Anti-bacterial activity assay; type: cell-based; conditions: ATCC19606, 50 µM
Protocol: (§1) The activity of compounds against methicillin resistant Staphylococcus aureus (ATCC 43300), Escherichia coli (ATCC 25922), Acinetobacter baumannii (ATCC 19606) and Klebsiella pneumoniae (ATCC 700603) was assessed at 50 µM in duplicate as previously described. In brief, mid-log phase bacteria cultures were added to 384-well microtiter plate wells containing compound to final cell density of 5 × 10^5 CFU/mL in 50 µL. Plates were then covered and incubated at 37 °C for 18 h without shaking. Inhibition of bacterial growth was determined by measuring absorbance at 600 nm (Tecan M1000 Pro monochromator plate reader) and calculating percentage growth inhibition relative to the negative media and bacteria without inhibitors. Vancomycin hydrochloride (Sigma-Aldrich an affiliate of Merck KGaA, Darmstadt, Germany, #861987) and colistin sulfate (Sigma-Aldrich an affiliate of Merck KGaA, Darmstadt, Germany, C4461) were on each plate as positive controls for Gram-positive (S. aureus) and Gram-negative (E. coli, A. baumannii and K. pneumoniae) bacteria, respectively.

[5] = tested on: Escherichia coli (ATCC 25922); experiment: Anti-bacterial activity assay; type: cell-based; conditions: for inhibition at 50 µM: Escherichia coli, ATCC25922, 50 µM, read-out: Bacterial Inhibition E. coli
Protocol: as §1

[6] = tested on: Klebsiella pneumoniae (ATCC 700603); experiment: Anti-bacterial activity assay; type: cell-based; conditions: ATCC700603, 50 µM, read-out: Bacterial Inhibition K. pneumoniae
Protocol: as §1

[7] = tested on: methicillin resistant Staphylococcus aureus (ATCC 43300); experiment: Anti-bacterial activity assay; type: cell-based; conditions: for inhibition at 50 µM: Staphylococcus aureus, ATCC43300, 50 µM, read-out: Bacterial Inhibition S. aureus
Protocol: as §1

[8] = 24 h, first singlicate assay, read-out: % Inhibition n=1 24h
[9] = 24 h, re-assessment, read-out: % Inhibition n=2 24h
[10] = 24 h, read-out: Average % Inhibition 24h
[11] = 48 h, first singlicate assay, read-out: % Inhibition n=1 48h
[12] = 48 h, re-assessment, read-out: % Inhibition n=2 48h
[13] = 48 h, read-out: Average % Inhibition 48h
[14] = Giardia duodenalis, 24 h, read-out: G. duodenalis IC50 24h, Table S2, 24 h, ±SD, max 10 µM
[15] = Giardia duodenalis, 48 h, Table S2, 48 h, ±SD, max 10 µM, read-out: G. duodenalis IC50 48h
[16] = Giardia duodenalis, 48 h, BRIS/91/HEPU/1279, 48 h, mean ± SD, read-out: IC50 Giardia (48 h)

- IC50 [2, 14]: > 10 µM
- IC50 [2, 15]: > 10 µM
SMILES: O=C(Nc1nc(-c2ccco2)c(-c2ccco2)s1)c1ccccc1 [SN00769776, O=C(Nc1sc(c2ccco2)c(n1)c1ccco1)c1ccccc1]
- inhibition at 10 µM [1, 8]: 35.4%
- inhibition at 10 µM [1, 9]: 19%
- inhibition at 10 µM [1, 10]: 27.2%
- inhibition at 10 µM [1, 11]: 77.6%
- inhibition at 10 µM [1, 12]: 64.8%
- inhibition at 10 µM [1, 13]: 71.2%
- inhibition at 20 µM [3]: 24.8 ± 11.7%
- inhibition at 50 µM [4]: 23.4%
- inhibition at 50 µM [5]: 8.92%
- inhibition at 50 µM [6]: 32.1%
- inhibition at 50 µM [7]: 6.45%

- IC50 [2, 14]: > 10 µM
- IC50 [2, 15]: 9.59 µM
SMILES: COc1cc(OC)c(C2=CCN(C(=O)c3ccc(C)s3)CC2)c(OC)c1 [SN00769982, COc1cc(OC)c(C2=CCN(CC2)C(=O)c2ccc(C)s2)c(OC)c1]
- inhibition at 10 µM [1, 8]: 46.2%
- inhibition at 10 µM [1, 9]: 0%
- inhibition at 10 µM [1, 10]: 23.1%
- inhibition at 10 µM [1, 11]: 78.1%
- inhibition at 10 µM [1, 12]: 40.5%
- inhibition at 10 µM [1, 13]: 59.3%
- inhibition at 20 µM [3]: -9.1 ± 3.8%
- inhibition at 50 µM [4]: 2.57%
- inhibition at 50 µM [5]: 6.08%
- inhibition at 50 µM [6]: 15.6%
- inhibition at 50 µM [7]: 3.41%

SMILES: O=[N+]([O-])c1ccc(N2CCC(c3ncc[nH]3)CC2)c2ccncc12 [SN00772378, O=N(=O)c1ccc(N2CCC(CC2)c2ncc[nH]2)c2ccncc12]
- inhibition at 10 µM [1, 8]: 80.4%
- inhibition at 10 µM [1, 9]: 47.7%
- inhibition at 10 µM [1, 10]: 64%
- inhibition at 10 µM [1, 11]: 88.7%
- inhibition at 10 µM [1, 12]: 87.4%
- inhibition at 10 µM [1, 13]: 88%
- IC50 [2, 14]: > 10 µM
- IC50 [2, 15]: 4.79 ± 1.45 µM
- inhibition at 20 µM [3]: 1.2 ± 1%
- inhibition at 50 µM [4]: 4.73%
- inhibition at 50 µM [5]: 5.55%
- inhibition at 50 µM [6]: 15.6%
- inhibition at 50 µM [7]: 34.4%

SMILES: COc1ccc(-c2csc(C3=C(N)N(CC(C)(C)CN(C)C)CC3=O)n2)cc1OC [SN00776314, COc1cc(ccc1OC)c1csc(n1)C1=C(N)N(CC1=O)CC(C)(C)CN(C)C]
- inhibition at 10 µM [1, 8]: 31.7%
- inhibition at 10 µM [1, 9]: 16.2%
- inhibition at 10 µM [1, 10]: 24%
- inhibition at 10 µM [1, 11]: 85.1%
- inhibition at 10 µM [1, 12]: 68.5%
- inhibition at 10 µM [1, 13]: 76.8%
- IC50 [2, 14]: > 10 µM
- IC50 [2, 15]: 9.16 µM
- inhibition at 10 µM ([2]; Giardia duodenalis, read-out: % inhibition @ 10µM 48h (comment), Table S2 comment, 10 µM, 48 h): 48.3%
- inhibition at 20 µM [3]: 24 ± 26.8%
- SI (48h Gd) [3]: > 2
- inhibition at 50 µM [4]: 9.53%
- inhibition at 50 µM [5]: 5.58%
- inhibition at 50 µM [6]: 10.9%
- inhibition at 50 µM [7]: 13.2%

- IC50 [2, 14]: 1.76 ± 0.35 µM
- IC50 [2, 15]: 1.01 ± 0.29 µM
SMILES: COc1ccc(C)cc1N1C(=O)C(c2ccccc2)C(c2nc3ccccc3s2)=C1N (centres unmarked) [SN00776374, COc1ccc(C)cc1N1C(=C(c2nc3ccccc3s2)C(c2ccccc2)C1=O)N]
- Average % Inhibition 48h ([1]; 48 h): > 90%
- inhibition at 10 µM [1, 8]: 90.5%
- inhibition at 10 µM [1, 9]: 90%
- inhibition at 10 µM [1, 10]: 90.3%
- inhibition at 10 µM [1, 11]: 95.8%
- inhibition at 10 µM [1, 12]: 97.6%
- inhibition at 10 µM [1, 13]: 96.7%
- inhibition at 20 µM [3]: 100.4 ± 0.2%
- SI (48h Gd) [3]: < 20
- inhibition at 50 µM [4]: 13.3%
- inhibition at 50 µM [5]: 2.94%
- inhibition at 50 µM [6]: 11.7%
- inhibition at 50 µM [7]: 16.6%

- IC50 [2, 16]: > 10 µM
SMILES: Cc1cc(-c2cc(C(=O)Nc3c(C)n(C)n(-c4ccccc4)c3=O)c3cnn(C(C)C)c3n2)c(C)o1 [SN00776477]
- inhibition at 10 µM [1, 11]: 0%

- IC50 [2, 14]: 0.25 ± 0.27 µM
- IC50 [2, 16]: 0.08 µM
SMILES: Cc1cc(-c2cc(C(=O)Nc3ccc(N4CCN(C)CC4)nc3)c3cnn(C(C)C)c3n2)c(C)o1 [SN00776497]
- Average % Inhibition 48h ([1]; 48 h): > 90%
- inhibition at 10 µM [1, 8]: 94.6%
- inhibition at 10 µM [1, 9]: 97.2%
- inhibition at 10 µM [1, 10]: 95.9%
- inhibition at 10 µM [1, 11]: 98%
- inhibition at 10 µM [1, 12]: 98.5%
- inhibition at 10 µM [1, 13]: 98.2%
- fold more potent than metronidazole ([2]; 48 h IC50): > 30 fold
- IC50 [3]: 8.1 µM
- Selectivity [3]: 101
- SI (48h Gd) [3]: 101
- inhibition at 50 µM [4]: 19.6%
- selectivity index over bacteria ([5]; E. coli, A. baumannii and K. pneumoniae / bacteria, Table S2): > 600
- inhibition at 50 µM [5]: 5.45%
- inhibition at 50 µM [6]: 8.25%
- Bacterial Inhibition S. aureus ([7]; 50 µM): 56%
- inhibition at 50 µM [7]: 55.8%

- IC50 [2, 16]: 0.47 µM
SMILES: CCc1ccc(C(=O)Nc2ccc3c(c2)Oc2ccccc2C(=O)N3C)cc1 [SN00797643]
- IC50 [3]: > 10 µM
- Selectivity [3]: >20

- IC50 ([2]; BRIS/91/HEPU/1279, 48 h, mean ± SD, read-out: IC50 Giardia (48 h)): 1.7 µM
- IC50 [2, 16]: 1.4 µM
SMILES: CN1C(=O)c2ccccc2Oc2cc(NC(=O)c3cc4ccccc4[nH]3)ccc21 [SN00797648]
- IC50 [3]: > 20 µM
- Selectivity [3]: >11

- IC50 [2, 16]: > 10 µM
SMILES: CN1C(=O)c2ccccc2Oc2cc(NC(=O)c3cc4cc(Cl)ccc4[nH]3)ccc21 [SN00797649]

- IC50 [2, 16]: > 10 µM
SMILES: COc1ccc(C(=O)Nc2ccc3c(c2)Oc2ccccc2C(=O)N3C(C)C)c(OC)c1 [SN00797650]

- IC50 [2, 16]: > 10 µM
SMILES: CC(=O)Nc1cccc(C(=O)Nc2ccc3c(c2)Oc2ccccc2C(=O)N3C(C)C)c1C [SN00797651]

- IC50 [2, 16]: > 10 µM
SMILES: CC(C)N1C(=O)c2ccccc2Oc2cc(NC(=O)CNC(=O)c3ccco3)ccc21 [SN00797652]
